Legend:
male balb/c mice = test: Open field test, functional state of the central nervous system of mice; assay type: in vivo; settings: for The number of acts of defecation within 15 minutes: control 0.2 ± 0.1; for The number of washes within 15 minutes (grooming): control 8.0 ± 1.5; for Number of standing up on hind legs in 15 minutes (vertical activity): control 67.1 ± 3.5; for Number of squares crossed within 15 minutes (horizontal activity): control 443.3 ± 15.6; for General physical activity for 15 minutes: control 518.4 ± 15.3
Description: For the final confirmation of the safety of Compound I at the oral administration, the study of the effect of Compound I on the functional state of the central nervous system of mice in the open field test was carried out. “Open field” test consists in the evaluation of motor and research activities, orientation reaction and emotional reactivity in the registration of spontaneous behaviour of animals. The study was carried out according to the standard technique (Buresh Y, Bureshova O., Joseph P. Houston. Methods and main experiments to study the brain and behavior (Moscow, 1991, pp. 119-122).
The study was carried out on male balb/c mice, the individual weight of which deviates from the mean value within the sex of no more than ±10%.
Compound I was administered once, intragastrically. The evaluation of the effect on the central nervous system was carried out 2 hours after the administration of Compound I in the study of the approximate research behaviour of mice in the “open field”. The experimental “open field” facility was a chamber of 100×100×60 cm in size, with a square floor and white walls. The floor of the chamber is divided into 16 squares, in each square there is the round orifice having 6 cm in diameter. The chamber is illuminated by the incandescent electric lamp having a power of 100 watts, located at a height of 1 m from the floor of the chamber. The animal was placed in one of the corners of the chamber and for 15 minutes the number of horizontal squares crossed by it (horizontal activity), getting up on its hind legs (vertical activity), washing (grooming), and defecation by the number of fecal balls were recorded. Then the total motor activity was calculated, the activity was calculated as the sum of the crossed horizontal squares, standing on the hind legs and washing.
The obtained data were checked using the Grubb's test for the presence of the largest or smallest abnormal observation (ejection) in the sample. Values determined “to be eliminated” in this test were not used for further assay. For all data, descriptive statistics was used: a mean value (M) and standard error of the mean value (m) were counted up. The normality of distribution of the values obtained in the course of the experiment was checked with the aid of the Kolmogorov-Smirnov test. In the case of normal distribution, Student's t-test (t-test) was used to evaluate the inter-group distinctions. In the case of the distribution that is other than the normal one the Kruskalll-Wallis test with Dann's post hoc test was used for the comparison of several groups. Distinctions were determined at 5% at a level of confidence.

[1] = Pharmacokinetics and tissue bioavailability after oral administration to rats; assay type: in vivo; settings: oral 10 mg/kg (therapeutic dose)
Description: To confirm low systemic availability of Compound 1, the study of pharmacokinetics and bioavailability of Compound 1 was carried out after the oral administration to rats in a dose of 10 mg/kg. The study was carried out on 18 male Vistar rats. Blood sampling in the animals was carried out at given time points for 24 h after the administration of the preparation. The content of Compound 1 in plasma samples was analyzed by HPLC-MS/MS, the […] was 1 ng/ml.

[2] = Solubility remark in acute toxicity dosing; assay type: physicochemical; settings: solvent 0.1% Tween-80 solution in water; 2000 mg/kg dose given in 2 administrations
Description: Compound I was administered to rats and mice intragastrically at a dose of 5000 mg/kg, intraperitoneally—at a dose of 2000 mg/kg. Control groups (female and male objects) were received a solvent (0.1% Tween-80 solution in water).

[3] = test system: guinea pigs of Agouti line; test: Capsaicin cough model in guinea pigs, inhalation administration; assay type: in vivo
[4] = test system: guinea pigs of Agouti line; test: Citrate cough model in guinea pigs, inhalation administration; assay type: in vivo; settings: 0.25 mg/kg by inhalation 15 minutes prior to citric acid
kappa opioid receptor = kappa opioid receptor (Homo sapiens, UniProt P41145); test: Kappa-opioid receptor radioligand displacement ([3H]U69593); assay type: binding
TRPV1 ion channel = biological target: T1, TRPV1 ion channel (Homo sapiens, UniProt Q8NER1); test: Effect on activity of TRPV1 ion channel (Fluo-4 AM calcium); assay type: cell-based; settings: TRPV1 expressing CHO cells; Capsaicin 30 nM; intracellular calcium; read-out: IC50, blocker of TRPV1 ion channel
T1 construct: expressed in transfected cells; host or cells: CHO cells
Description: Compound I was dissolved in DMSO to a concentration of 100 mM; then the stock solution was serially diluted with DMSO to prepare a test solution with the concentration of substance equal to 50 μM. TRPV1 expressing CHO cells were used in the experiment. At the day of the experiment, the cells were incubated with a 4 μM of a solution of fluorescent indicator Fluo-4 AM. The cells after the preincubation with Capsaicin (30 nM), the known agonist of […] ion channel, were incubated with the test compound. The activity of receptors was determined by the intracellular calcium concentration using fluorescence spectroscopy (Behrendt, H. J. et al. (2004), Br. J. Pharmacol., 141: 737-745. FINAL).

[5] = 0.75 mg/kg intragastrically 2 hours prior
[6] = 1.5 mg/kg intragastrically 2 hours prior
[7] = 2.5 mg/kg intragastrically 2 hours prior
[8] = 5 mg/kg intragastrically 2 hours prior
[9] = 10 mg/kg intragastrically 2 hours prior
[10] = 20 mg/kg intragastrically 2 hours prior
[11] = 30 mg/kg intragastrically 2 hours prior

Sequence of kappa opioid receptor (P41145 whole entry): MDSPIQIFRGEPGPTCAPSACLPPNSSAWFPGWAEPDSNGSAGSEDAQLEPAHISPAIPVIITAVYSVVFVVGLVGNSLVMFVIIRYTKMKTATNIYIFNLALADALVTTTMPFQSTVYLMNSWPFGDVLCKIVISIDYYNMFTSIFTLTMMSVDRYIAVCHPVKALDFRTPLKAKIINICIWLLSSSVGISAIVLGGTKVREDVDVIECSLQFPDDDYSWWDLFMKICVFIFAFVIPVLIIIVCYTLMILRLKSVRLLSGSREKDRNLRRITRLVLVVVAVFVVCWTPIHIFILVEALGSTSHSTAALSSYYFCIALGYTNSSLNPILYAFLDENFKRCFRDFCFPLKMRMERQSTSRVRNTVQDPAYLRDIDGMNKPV
T1 sequence (Q8NER1 whole entry): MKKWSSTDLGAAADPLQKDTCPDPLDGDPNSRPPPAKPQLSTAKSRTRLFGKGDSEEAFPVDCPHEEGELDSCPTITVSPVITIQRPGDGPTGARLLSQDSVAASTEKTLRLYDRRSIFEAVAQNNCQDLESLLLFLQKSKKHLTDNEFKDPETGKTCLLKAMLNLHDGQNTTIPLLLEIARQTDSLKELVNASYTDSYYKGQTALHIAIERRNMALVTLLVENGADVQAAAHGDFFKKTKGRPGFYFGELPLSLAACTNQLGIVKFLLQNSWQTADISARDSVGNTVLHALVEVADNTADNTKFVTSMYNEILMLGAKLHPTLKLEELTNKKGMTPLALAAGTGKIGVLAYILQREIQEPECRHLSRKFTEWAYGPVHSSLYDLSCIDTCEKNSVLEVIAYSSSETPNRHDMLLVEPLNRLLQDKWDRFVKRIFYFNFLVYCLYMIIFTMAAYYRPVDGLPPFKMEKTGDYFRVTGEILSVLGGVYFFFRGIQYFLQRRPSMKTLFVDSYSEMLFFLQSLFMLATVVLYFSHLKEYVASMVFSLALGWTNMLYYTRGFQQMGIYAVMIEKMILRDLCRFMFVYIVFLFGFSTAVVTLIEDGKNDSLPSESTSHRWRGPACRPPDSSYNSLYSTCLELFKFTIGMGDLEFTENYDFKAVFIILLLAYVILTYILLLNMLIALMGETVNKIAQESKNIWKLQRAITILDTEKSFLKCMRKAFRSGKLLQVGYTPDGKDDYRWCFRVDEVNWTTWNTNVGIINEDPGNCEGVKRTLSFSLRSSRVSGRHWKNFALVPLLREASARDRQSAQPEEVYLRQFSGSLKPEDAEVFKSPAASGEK

In the case of `O=C(Cc1ccc(O)cc1)N[C@@H](Cc1ccccc1)C(=O)NCCc1ccccc1` [Compound I, 2-phenylethylamide N-(p-hydroxyphenylacetyl)phenylalanine], the “The number of acts of defecation within 15 minutes” value (male balb/c mice; [5]) is reported as 0.2 ± 0.1, the “The number of washes within 15 minutes (grooming)” value (shortened to “The number … (grooming)”) (male balb/c mice; [5]) is reported as 7.2 ± 1.4 and the “Number of standing up on hind legs in 15 minutes (vertical activity)” value (“Number of standing up on hind legs” for short) (male balb/c mice; [5]) is reported as 69.9 ± 4.3. The “Number of squares crossed within 15 minutes (horizontal activity)” value (shortened to “Number … (horizontal activity)”) (male balb/c mice; [5]) was 468.5 ± 13.0, the “General physical activity for 15 minutes” value (male balb/c mice; [5]) was 545.6 ± 16.5 and the “The number of acts of defecation within 15 minutes” value (male balb/c mice; [6]) was 1.6 ± 0.6. For the same compound, the “The number … (grooming)” value (male balb/c mice; [6]) was 8.5 ± 1.6, the “Number of standing up on hind legs” value (male balb/c mice; [6]) was 63.0 ± 4.2 and the “Number … (horizontal activity)” value (male balb/c mice; [6]) was 414.2 ± 24.1. For the same compound, the “General physical activity for 15 minutes” value (male balb/c mice; [6]) was 485.7 ± 24.8, the “The number of acts of defecation within 15 minutes” value (male balb/c mice; [7]) was 0.0 ± 0.0 and the “The number … (grooming)” value (male balb/c mice; [7]) was 8.6 ± 1.6. For the same compound, the “Number of standing up on hind legs” value (male balb/c mice; [7]) was 72.8 ± 3.5, the “Number … (horizontal activity)” value (male balb/c mice; [7]) was 459.5 ± 19.0 and the “General physical activity for 15 minutes” value (male balb/c mice; [7]) was 540.9 ± 18.0. For the same compound, the “The number of acts of defecation within 15 minutes” value (male balb/c mice; [8]) was 1.5 ± 0.2, the “The number … (grooming)” value (male balb/c mice; [8]) was 2.3 ± 1.0 and the “Number of standing up on hind legs” value (male balb/c mice; [8]) was 71.7 ± 4.4. The “Number … (horizontal activity)” value (male balb/c mice; [8]) was 480.6 ± 22.1, the “General physical activity for 15 minutes” value (male balb/c mice; [8]) was 554.6 ± 23.9 and the “The number of acts of defecation within 15 minutes” value (male balb/c mice; [9]) was 0.0 ± 0.0. For the same compound, the “The number … (grooming)” value (male balb/c mice; [9]) was 6.8 ± 1.3, the “Number of standing up on hind legs” value (male balb/c mice; [9]) was 66.1 ± 3.3 and the “Number … (horizontal activity)” value (male balb/c mice; [9]) was 449.2 ± 15.6. The “General physical activity for 15 minutes” value (male balb/c mice; [9]) was 522.1 ± 16.5, the “The number of acts of defecation within 15 minutes” value (male balb/c mice; [10]) was 0.0 ± 0.0 and the “The number … (grooming)” value (male balb/c mice; [10]) was 6.2 ± 1.3. The “Number of standing up on hind legs” value (male balb/c mice; [10]) was 64.9 ± 4.0, the “Number … (horizontal activity)” value (male balb/c mice; [10]) was 479.4 ± 29.3 and the “General physical activity for 15 minutes” value (male balb/c mice; [10]) was 545.5 ± 30.4. The “The number of acts of defecation within 15 minutes” value (male balb/c mice; [11]) was 0.0 ± 0.0, the “The number … (grooming)” value (male balb/c mice; [11]) was 5.9 ± 1.4 and the “Number of standing up on hind legs” value (male balb/c mice; [11]) was 69.0 ± 3.8. The “Number … (horizontal activity)” value (male balb/c mice; [11]) was 448.4 ± 16.4, the “General physical activity for 15 minutes” value (male balb/c mice; [11]) was 523.3 ± 16.6 and the “Toxic influence on approximate-research behaviour in the open field test” value (male balb/c mice; intragastric administration, 0.75-30 mg/kg, no statistically significant differences to control) was “did not have the toxic influence”. The “Penetration into the brain” value [1] was “does not penetrate into the brain of rats”, the Solubility [2] was “poor” and the “Suppression of cough (% from the control)” value ([3]; 0.25 mg/kg by inhalation 15 minutes before capsaicin) was 46.7%. The “A number of cough attacks for 15 minutes from the start of inhalation (test)” value ([3]; 0.25 mg/kg by inhalation 15 minutes before capsaicin 30 μM, control 15.2 ± 0.8) was 8.1 ± 0.2*&, the “Suppression of cough (% from the control of pathology) in the chamber” value [4] was 39.1% and the “A number of cough attacks during the inhalation for 10 minutes” value ([4]; control 48.8 ± 4) was 29.7 ± 2.7*&. The IC50 (kappa opioid receptor) was 7.1 µM and the IC50 (TRPV1 ion channel) was 51 µM.

Reference: patent US11414377B2, “Modulator of metabotropic and ionotropic transmembrane receptors and use thereof” (IBD THERAPEUTICS LLC, priority 2018, dated 2022)
